Assay results from PubChem BioAssay AID330 (DTP/NCI, 2004).
“And” between values parts separate entries of the source, which are not always exact repeats. Identical values can stand only once. Inconclusive results and toxic doses are left out.

Tested on: P388 leukemia ip, CD2F1 mice, survival T/C
Test: NCI In Vivo Anticancer Drug Screen. Data for tumor model P388 Leukemia (intraperitoneal) in CD2F1 (CDF1) mice
Details: endpoint: median survival time, higher = longer survival
In short: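 Mice carrying the transplanted tumor received test compound or vehicle. Survival was recorded in each group, and the value is the treated-group measurement divided by that of the vehicle-treated control group.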

[1] = dose: 100.0 mg/kg/injection, schedule: Q01DX009 (ip), vehicle: Klucel (hydroxypropylcellulose) (HPC)
[2] = dose: 200.0 mg/kg/injection, schedule: Q01DX009 (ip), vehicle: Klucel (hydroxypropylcellulose) (HPC)
[3] = dose: 400.0 mg/kg/injection, schedule: Q01DX009 (ip), vehicle: Klucel (hydroxypropylcellulose) (HPC)
[4] = dose: 50.0 mg/kg/injection, schedule: Q01DX005 (ip), vehicle: saline with Tween-80
[5] = dose: 100.0 mg/kg/injection, schedule: Q01DX005 (ip), vehicle: saline with Tween-80
[6] = dose: 12.5 mg/kg/injection, schedule: Q01DX009 (ip), vehicle: saline with Tween-80
[7] = dose: 25.0 mg/kg/injection, schedule: Q01DX009 (ip), vehicle: saline with Tween-80
[8] = dose: 60.0 mg/kg/injection, schedule: Q01DX005 (ip), vehicle: saline with Tween-80
[9] = dose: 120.0 mg/kg/injection, schedule: Q01DX005 (ip), vehicle: saline with Tween-80
[10] = dose: 240.0 mg/kg/injection, schedule: Q01DX005 (ip), vehicle: saline with Tween-80
[11] = dose: 200.0 mg/kg/injection, schedule: Q01DX005 (ip), vehicle: saline with Tween-80

CC1(C)CC(=O)C([Se]C2=C(O)CC(C)(C)CC2=O)=C(O)C1
T/C (dose: 6.25 mg/kg/injection, schedule: Q01DX009 (ip), vehicle: saline): 101 % of control | T/C (dose: 12.5 mg/kg/injection, schedule: Q01DX009 (ip), vehicle: saline): 104 % of control | T/C (dose: 25.0 mg/kg/injection, schedule: Q01DX009 (ip), vehicle: saline): 111 % of control

CC(C)(C)OC(=O)C(CC(=O)O)=C(c1ccccc1)c1ccccc1
T/C [1]: 100 % of control | T/C [2]: 100 % of control | T/C [3]: 95 % of control

O=C1c2cccc3cccc(c23)C(=O)N1CCc1ccccn1
T/C [4]: 107 % of control | T/C [5]: 98 % of control

NN1C(=O)c2cccc3cccc(c23)C1=O
T/C (dose: 3.13 mg/kg/injection, schedule: Q01DX009 (ip), vehicle: saline with Tween-80): 105 % of control | T/C (dose: 6.25 mg/kg/injection, schedule: Q01DX009 (ip), vehicle: saline with Tween-80): 100 % of control | T/C [6]: 100 % of control | T/C [7]: 105 % of control

Cc1cccc(N2CCN(c3ccc4nonc4c3[N+](=O)[O-])CC2)c1
T/C (dose: 50.0 mg/kg/injection, schedule: Q01DX009 (ip), vehicle: suspension in saline): 98 % of control | T/C (dose: 100.0 mg/kg/injection, schedule: Q01DX009 (ip), vehicle: suspension in saline): 92 % of control and 95 % of control | T/C (dose: 200.0 mg/kg/injection, schedule: Q01DX009 (ip), vehicle: suspension in saline): 89 % of control and 90 % of control

CCOC(=O)c1cnc(-c2ccccc2)n(-c2ccccc2)c1=O
T/C (dose: 50.0 mg/kg/injection, schedule: Q01DX005 (ip), vehicle: Klucel (hydroxypropylcellulose) (HPC)): 105 % of control | T/C (dose: 100.0 mg/kg/injection, schedule: Q01DX005 (ip), vehicle: Klucel (hydroxypropylcellulose) (HPC)): 107 % of control

CN(C)/C=N/NC(=O)c1ccccc1N
T/C [8]: 101 % of control | T/C [9]: 101 % of control | T/C [10]: 100 % of control

O=C(CNC(=O)Nc1cccc(C(F)(F)F)c1)NNC(=O)Nc1ccc(Cl)c([N+](=O)[O-])c1
T/C [8]: 92 % of control | T/C [9]: 87 % of control | T/C [10]: 92 % of control

Cc1cc(C)n(-c2ccc3nnnn3n2)n1
T/C (dose: 100.0 mg/kg/injection, schedule: Q04DX002 (ip), vehicle: saline): 93 % of control | T/C (dose: 200.0 mg/kg/injection, schedule: Q04DX002 (ip), vehicle: saline): 93 % of control | T/C (dose: 400.0 mg/kg/injection, schedule: Q04DX002 (ip), vehicle: saline): 102 % of control

Clc1cc(=Nc2ccccc2)n2ccccc2n1
T/C (dose: 60.0 mg/kg/injection, schedule: Q01DX005 (ip), vehicle: Klucel (hydroxypropylcellulose) (HPC)): 96 % of control | T/C (dose: 120.0 mg/kg/injection, schedule: Q01DX005 (ip), vehicle: Klucel (hydroxypropylcellulose) (HPC)): 99 % of control | T/C (dose: 240.0 mg/kg/injection, schedule: Q01DX005 (ip), vehicle: Klucel (hydroxypropylcellulose) (HPC)): 97 % of control

O=C(OCOC(=O)c1ccccc1)c1ccccc1
T/C [1]: 117 % of control | T/C [2]: 107 % of control | T/C [3]: 109 % of control

C/C=C/C1OC(=O)C=C1Sc1ccccc1 (stereo not drawn)
T/C [4]: 114 % of control | T/C [5]: 117 % of control | T/C [11]: 114 % of control

CC1=C(O)CC(/C(C)=C/Cl)OC1=O (stereo not drawn)
T/C (dose: 100.0 mg/kg/injection, schedule: Q04DX002 (ip), vehicle: Klucel (hydroxypropylcellulose) (HPC)): 103 % of control | T/C (dose: 200.0 mg/kg/injection, schedule: Q04DX002 (ip), vehicle: Klucel (hydroxypropylcellulose) (HPC)): 107 % of control | T/C (dose: 400.0 mg/kg/injection, schedule: Q04DX002 (ip), vehicle: Klucel (hydroxypropylcellulose) (HPC)): 102 % of control

CNc1ccc2c(c1)C(=O)c1c(C)n(C)c3cccc-2c13
T/C [4]: 98 % of control

CCOC(=Nc1ccc2ccccc2c1)SC(c1ccccc1)(c1ccccc1)c1ccccc1
T/C [4]: 107 % of control | T/C [5]: 95 % of control | T/C [11]: 87 % of control

CC(C(=O)O)c1ncnn1-c1ccccc1 (stereo not drawn)
T/C (dose: 60.0 mg/kg/injection, schedule: Q01DX005 (ip), vehicle: saline): 105 % of control | T/C (dose: 120.0 mg/kg/injection, schedule: Q01DX005 (ip), vehicle: saline): 104 % of control | T/C (dose: 240.0 mg/kg/injection, schedule: Q01DX005 (ip), vehicle: saline): 102 % of control

COC1/C=C/OC2(C)Oc3c(C)c(O)c4c(O)c(c(/C=N/N5C(C)CN(Cc6ccccc6C#N)CC5C)c(O)c4c3C2=O)NC(=O)/C(C)=C\C=C\C(C)C(O)C(C)C(O)C(C)C(OC(C)=O)C1C (stereo not drawn)
T/C [6]: 111 % of control | T/C [7]: 118 % of control | T/C (dose: 50.0 mg/kg/injection, schedule: Q01DX009 (ip), vehicle: saline with Tween-80): 109 % of control | T/C (dose: 100.0 mg/kg/injection, schedule: Q01DX009 (ip), vehicle: saline with Tween-80): 107 % of control and 108 % of control

NC(CSCCCSCC(N)C(=O)O)C(=O)O (stereo not drawn)
T/C (dose: 25.0 mg/kg/injection, schedule: Q01DX001 (ip), vehicle: Klucel (hydroxypropylcellulose) (HPC)): 97 % of control | T/C (dose: 50.0 mg/kg/injection, schedule: Q01DX001 (ip), vehicle: Klucel (hydroxypropylcellulose) (HPC)): 97 % of control | T/C (dose: 100.0 mg/kg/injection, schedule: Q01DX001 (ip), vehicle: Klucel (hydroxypropylcellulose) (HPC)): 96 % of control and 97 % of control | T/C (dose: 200.0 mg/kg/injection, schedule: Q01DX001 (ip), vehicle: Klucel (hydroxypropylcellulose) (HPC)): 104 % of control
